Publication PMC8225628, “Bispecific repurposed medicines targeting the viral and immunological arms of COVID-19” (Scientific Reports, 2021)
“And” between values parts separate entries of the source, which are not always exact repeats. Identical values can stand only once. Like-named read-outs stand apart in the source and are kept apart here. *1 amine or outer side, *2 acyl side, *3 side chain or, on linkers, in order; H or OH if unused. Where a SMILES comes first, the peptide text is derived from it. Bridges are numbered along the chain shown (N, C = ends). [ ]: non-standard residue; d: D form. The star is where a group is joined. hTyr(3S-OH,4S-OH,3'-OSO3H) = N[C@H](C(=O)O)[C@H](O)[C@@H](O)c1ccc(O)c(OS(=O)(=O)O)c1; Orn(4R-OH,5R-OH) = O=C([C@H](C[C@@H](O)[C@@H](O)N[*:3])N[*:1])[*:2]; Pro(3S-OH,4S-Me) = C[C@H]1CN[C@H](C(=O)O)[C@H]1O; X1 = CCCCCOc1ccc(-c2cc(-c3ccc(C(=O)*)cc3)no2)cc1; Gln(3R-OH) = NC(=O)C[C@@H](O)[C@H](N)C(=O)O; Hyp = O=C(O)[C@@H]1C[C@@H](O)CN1

Target: SARS-CoV-2 M^pro (Severe acute respiratory syndrome coronavirus 2, UniProt P0DTD1)
Test: biochemical
[1] = ReFRAME hits, >5e-6 = not potent enough to determine an IC50, read-out: M^pro IC50

Compound | M^pro % inhibition at 10 µM (ReFRAME hits, 10 µM) | IC50 [1] [µM] | IC50 (read-out: M^pro IC50) [µM] | further results
CN1CCCN=C1/C=C/c1cccs1 [Pyrantel pamoate, reference compound] | – | – | – | IC50: 4 µM
[Cl][Hg][Cl] [mercuric chloride] | 89% | > 5 | – | –
CN1CCCN=C1/C=C/c1cccc(O)c1 [oxantel (pamoate), reference compound] | – | 4 | – | –
(-)-epicatechin gallate | 46% | > 5 | – | –
O=c1cc(-c2ccc(O)c(-c3c(O)cc(O)c4c(=O)cc(-c5ccc(O)cc5)oc34)c2)oc2cc(O)cc(O)c12 [amentoflavone] | – | – | > 5 | –
Cc1cc(O)c2c(=O)c3c(O)cc(O)c4c5c(O)cc(O)c6c(=O)c7c(O)cc(C)c8c1c2c(c34)c(c78)c65 [hypericin] | – | – | 4 | inhibition at 10 µM (read-out: M^pro % inhibition at 10 µM, ReFRAME hits, 10 µM): 71%
CC(=O)N[C@@H](Cc1ccc(O)cc1)C(=O)N[C@H](C(=O)N[C@@H](C)C(=O)N[C@@H](CC(=O)O)C(=O)COC(=O)c1c(C)cccc1C)C(C)C [Compound 6, Ac-YVAD-AOM, reference compound] | – | – | – | Inhibition of M^pro (in words): did not substantially inhibit
O=C1OC2(c3ccccc31)c1cc(I)c(O)c(I)c1Oc1c2cc(I)c(O)c1I [erythrosine] | – | – | – | IC50: 4 µM
CC(=O)[O][Hg][c]1cc(C(C)(C)CC(C)(C)C)ccc1O [acetomeroctol] | – | – | > 5 | M^pro % inhibition at 10 µM: 79%
teicoplanin [reference compound] | 73% and 40% | > 5 | – | –
CCCCCOc1ccc(-c2cc(-c3ccc(C(=O)N[C@H]4C[C@@H](O)[C@@H](O)NC(=O)[C@@H]5[C@@H](O)[C@@H](C)CN5C(=O)[C@H]([C@H](O)CC(N)=O)NC(=O)[C@H]([C@H](O)[C@@H](O)c5ccc(O)c(OS(=O)(=O)[O-])c5)NC(=O)[C@@H]5C[C@@H](O)CN5C(=O)[C@H]([C@@H](C)O)NC4=O)cc3)no2)cc1.[Na+] [micafungin Sodium, reference compound] (X1-[Orn(4R-OH,5R-OH)]T[Hyp][hTyr(3S-OH,4S-OH,3'-OSO3H)][Gln(3R-OH)][Pro(3S-OH,4S-Me)]; lactam 1-C) | 50% | > 5 | – | –
Nc1nc(N)nc(Nc2ccc([As]3SC(C(=O)O)C(C(=O)O)S3)cc2)n1 (stereo not drawn) [MELARSONYL] | – | – | 1 | M^pro % inhibition at 10 µM: 99%
[(-)-epicatechin] | 48% | > 5 | – | –
CC(C)[C@H](NC(=O)OCc1ccccc1)C(=O)N[C@@H](C)C(=O)N[C@@H](CC(=O)O)C(=O)COC(=O)c1c(Cl)cccc1Cl [Compound 5] | – | – | – | inhibition at 100 µM (at 100 µM): 50%
O=C(N/N=C/c1ccc([N+](=O)[O-])o1)c1cc([N+](=O)[O-])cc([N+](=O)[O-])c1O [nifursol] | – | – | > 5 | –
CN1CCCN=C1/C=C/c1cccc(O)c1.O=C(O)c1cc2ccccc2c(Cc2c(O)c(C(=O)O)cc3ccccc23)c1O [oxantel (pamoate), reference compound] | 77% | – | – | –
